Laboratory results reported in patent publication US20250296938A1, “Compounds that Interact with the Ras Superfamily for the Treatment of Cancers, Inflammatory Diseases, Rasopathies, and Fibrotic Disease” (SHY Therapeutics, LLC, priority 2018, published 2025).
Like-named read-outs stand apart in the source and are kept apart here.

Assays:
Assay in all cases: Ras GTP binding domain inhibition assay (Cy3-GTP/Cy5-GTP competition)
KRas G12D mutant = molecular target: T1, KRas G12D mutant (Homo sapiens, UniProt P01116, G12D); settings: 20 μM
T1 construct: fused on or other part: His tag, used for capture on nickel-coated plates
How it was run: (§1)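 His-tagged Ras immobilized on nickel-coated wells in Tris buffer (pH 7.4 or 7.0) with 1 mM MgCl2, 1 mM DTT, 1% DMSO. Compound (20 μM, or serial dilution for IC50) incubated 3 hours at room temperature, ± Sos (residues 556-1049) in final hour. Bound 100 nM Cy3-/Cy5-GTP read after 45 minutes and washing.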

KRas G12C mutant = system: KRas G12C mutant; set-up: species or system human; settings: 20 μM; for KRas G12C mutant + SOS: % inh.: with SOS; for KRas G12C mutant: % inh.: without SOS
How it was run: as §1

KRas wild type = system: KRas wild type; set-up: species or system human; settings: 20 μM; for KRas wild type + SOS: % inh.: with SOS; for KRas wild type: % inh.: without SOS
How it was run: as §1

KRas Q61H mutant = system: KRas Q61H mutant; set-up: species or system human; settings: 20 μM; for KRas Q61H mutant + SOS: % inh.: with SOS; for KRas Q61H mutant: % inh.: without SOS
How it was run: as §1

[1] = with SOS, read-out: KRas G-12D mutant + SOS: % inh.
[2] = without SOS, read-out: KRas G12D mutant: % inh.

Structure (SMILES)	inhibition at 20 µM (KRas G12D mutant; [1])	inhibition at 20 µM (KRas G12D mutant; [2])	KRas G12C mutant + SOS: % inh. (KRas G12C mutant)	KRas G12C mutant: % inh. (KRas G12C mutant)	KRas wild type + SOS: % inh. (KRas wild type)	KRas wild type: % inh. (KRas wild type)	KRas Q61H mutant + SOS: % inh. (KRas Q61H mutant)	KRas Q61H mutant: % inh. (KRas Q61H mutant)
COCC1CN(c2nc(-c3nccn3C)nc3sc(-c4cccc(OC)c4F)c(-c4ccc(OC)cc4)c23)C1 [drawing 805]	51 to 75%	51 to 75%	D (76-100% inhibition)	B (26-50% inhibition)	D (76-100% inhibition)	C (51-75% inhibition)	D (76-100% inhibition)	D (76-100% inhibition)
COc1ccc(-c2c(-c3cccc(OC)c3F)sc3nc(-c4nccn4C)nc(N4CCC(OC)C4)c23)cc1 (stereo not drawn) [drawing 806]	51 to 75%	51 to 75%	D (76-100% inhibition)	A (1-25% inhibition)	D (76-100% inhibition)	C (51-75% inhibition)	D (76-100% inhibition)	C (51-75% inhibition)
Cc1cn(C)c(-c2nc(O)c3scc(-c4ccccn4)c3n2)n1 [drawing 807]	26 to 50%	76 to 100%	C (51-75% inhibition)	C (51-75% inhibition)	B (26-50% inhibition)	D (76-100% inhibition)	C (51-75% inhibition)	A (1-25% inhibition)
Cc1cnc(-c2nc(O)c3scc(-c4ccccn4)c3n2)n1C [drawing 808]	1 to 25%	51 to 75%	B (26-50% inhibition)	C (51-75% inhibition)	A (1-25% inhibition)	C (51-75% inhibition)	B (26-50% inhibition)	A (1-25% inhibition)
O=C(NC1CCC1)c1nc(-c2ccccn2)nc(O)c1O [drawing 809]	26 to 50%	51 to 75%	B (26-50% inhibition)	C (51-75% inhibition)	A (1-25% inhibition)	D (76-100% inhibition)	B (26-50% inhibition)	D (76-100% inhibition)
COCCN(C)C(=O)c1nc(-c2ccccn2)nc(O)c1O [drawing 810]	1 to 25%	1 to 25%	A (1-25% inhibition)	C (51-75% inhibition)	A (1-25% inhibition)	B (26-50% inhibition)	A (1-25% inhibition)	A (1-25% inhibition)
CC(C)CNC(=O)c1nc(-c2ccccn2)nc(O)c1O [drawing 811]	1 to 25%	51 to 75%	B (26-50% inhibition)	D (76-100% inhibition)	A (1-25% inhibition)	D (76-100% inhibition)	B (26-50% inhibition)	C (51-75% inhibition)
O=C(NC1CCCC1)c1nc(-c2ccccn2)nc(O)c1O [drawing 812]	1 to 25%	51 to 75%	B (26-50% inhibition)	D (76-100% inhibition)	A (1-25% inhibition)	D (76-100% inhibition)	B (26-50% inhibition)	C (51-75% inhibition)
COc1c(O)nc(-c2ccccn2)nc1Oc1ccccc1 [drawing 813]	26 to 50%	26 to 50%	C (51-75% inhibition)	C (51-75% inhibition)	B (26-50% inhibition)	D (76-100% inhibition)	C (51-75% inhibition)	D (76-100% inhibition)
